Patent publication US20130261066A1, “TREATMENT OF INFLAMMATORY BOWEL DISEASES USING A TRIPEPTIDE” (THE RESEARCH FOUNDATION OF STATE UNIVERSITY OF NEW YORK, priority 2010, published 2013)

Legend:
Assay type in all cases: in vivo
TNBS-induced colitis = TNBS-induced colitis (experimental Crohn's disease) in SJL/J mice
Description: TNBS (2,4,6-trinitro benzene sulfonic acid) induces a form of colitis in SJL/J mice that recapitulates Crohn's disease. The optimal dose of TNBS was determined to be 100 μl of a 2.5% ethanolic solution instilled intracolonically. SJL mice received 2.5% TNBS solution in 50% ethanol by intra-colonic instillation using a 3.5 F catheter, which was inserted 4 cm into the colon under mild ketamine/xylazine anesthesia. Mice received MC-12 25 mg/kg or vehicle ip twice a day for two days. Body weight was monitored daily and mice were euthanized on the third day when blood and colon tissues were collected as described above for further analysis.
The fixed colon was cut into six equal fragments, dehydrated and embedded into paraffin. The tissue sections were stained with hematoxylin and eosin (H&E). The histological score was determined by two pathologists as described, based on the degree (0-3) and extent (0-3) of inflammation, crypt damage (0-4) and the area involved (0-4). The scores of each of the first three parameters were multiplied by the fourth and the sum of these three multiples was the final score (ranging from 0 to 40).

[1] = tested on: cytosolic phospholipase A2 (cPLA2); experiment: cPLA2 activity in colon tissue of DSS-treated mice
Description: cPLA2 enzymes release fatty acids from the second carbon group of glycerol. This particular phospholipase specifically recognizes the sn-2 acyl bond of phospholipids and catalytically hydrolyzes the bond releasing a lysopospholipid and arachidonic acid; the latter is then modified by cyclooxygenases into active compounds called eicosanoids by cyclooxygenases. Eicosanoids include prostaglandins and leukotrienes which are categorized as inflammatory mediators. […] Treatment with MC12 decreased cPLA2 activity by 18% at 40 μg and 26% at the dose of 80 μg (p<0.05).
We also determined the activity of cytosolic phospholipase A2 (cPLA2) in colonic tissues from study mice. cPLA2s are enzymes that release fatty acids from the second carbon group of glycerol. This particular […] specifically recognizes the sn-2 acyl bond of phospholipids and catalytically hydrolyzes the bond releasing arachidonic acid and lysophospholipids, which are then modified into active compounds called eicosanoids by cyclooxygenases. Eicosanoids include prostaglandins and leukotrienes which are categorized as inflammatory mediators.
A cPLA2 assay kit (Cayman, Ann Arbor, Mich.) was used to determine cPLA2 activity following the instructions of the manufacturer. Briefly, a portion of colon tissue was homogenized in cold PBS and centrifuged at 10,000×g for 15 minutes and 10 μl of supernatant from each sample and 5 μl assay buffer were added into a 96-well microplate. The reaction was initialized by adding 200 μl substrate solutions to all wells and incubating for 5 min at room temperature. The fluorescence intensity was measured using a Multiplate Reader (Molecular Devices) at excitation at 485 nm, emission at 530 nm.

IFN-γ = experiment: Colon cytokine mRNA by real-time PCR, DSS mice; settings: MC-12 at either dose (5 or 25 mg/kg)
Description: (§1) Expression of inflammatory cytokines TNF-α, IFN-γ, IL-1β, IL-6 and IL-10 in the colon was determined by measuring corresponding mRNA levels using real-time PCR. About 100 mg colon tissue were placed in 1 ml of cold Trizol (Invitrogen Life Technologies, Carlsbad, Calif.), immediately homogenized with a rotor power homogenizer, and RNA was extracted according to the manufacturer's instructions. Total RNA was retrotranscribed with M-MLV reverse transcriptase (Invitrogen Life Technologies, Carlsbad, Calif.) using random primers. Real-time quantitative PCR was performed in a CFD-3200 Opticon detector (BioRad, Hercules, Calif., USA) using QuantiTect SYBR Green PCR Kits (Qiagen, Valencia Calif., USA). The PCR cycling conditions were: 40 cycles of 60 seconds at 94° C., 30 seconds at 51.4° C. and 30 seconds at 72° C. PCR primers (forward and reverse primers) were designed based on published sequences: TNF-α: AGGCTGCCCCGACTACGT (SEQ ID NO:12) and […] (SEQ ID NO:13); IFN-γ: CAGCAACAGCAAGGCGAAA (SEQ ID NO:14) and CTGGACCT GTGGGTTGTTGAC (SEQ ID NO:15); IL-1β: […] (SEQ ID NO:16) and […] (SEQ ID NO:17); IL-6: […] (SEQ ID NO:18) and […] (SEQ ID NO:19); […]: […] (SEQ ID NO:20) and […] (SEQ ID NO:21); β-actin: […] (SEQ ID NO:20) and […] (SEQ ID NO:21). Relative expression levels of mRNA were normalized to β-actin.

IL-10 = experiment: Colon cytokine mRNA by real-time PCR, DSS mice; settings: MC-12 at either dose (5 or 25 mg/kg)
Description: as §1

IL-1β = experiment: Colon cytokine mRNA by real-time PCR, DSS mice; settings: MC-12 at either dose (5 or 25 mg/kg)
Description: as §1

IL-6 = experiment: Colon cytokine mRNA by real-time PCR, DSS mice; settings: MC-12 at either dose (5 or 25 mg/kg)
Description: as §1

TNF-α = experiment: Colon cytokine mRNA by real-time PCR, DSS mice; settings: MC-12 at either dose (5 or 25 mg/kg)
Description: as §1

DSS-induced colitis = DSS-induced colitis in mice, MC-12 5 or 25 mg/kg ip or po (Example 4); settings: for reduction of histological score compared to DSS control: p<0.01

For Gln-Ala-Trp (QAW) [MC12], the “inflammatory cell infiltration and crypt loss (histology)” value (TNBS-induced colitis; 25 mg/kg bid for 2 d) was “decreased the inflammatory cell infiltration and crypt loss”, the “TNBS-caused shortening of colon length” value (TNBS-induced colitis; 25 mg/kg ip bid 2 d) was “did not prevent this effect” and the “reduction of body weight on day 3 compared to baseline” value (TNBS-induced colitis; 25 mg/kg ip bid 2 d, TNBS alone 18.2%) was 15.3%. The “histological score (mean±SEM)” value (TNBS-induced colitis; 25 mg/kg ip bid 2 d, TNBS control 38.3±1.7, scale 0 to 40) was 23.3±3.3, the “reduction of histological score compared to TNBS control” value (TNBS-induced colitis; 25 mg/kg ip bid 2 d, p<0.01) was 39.1% and the “prevention of weight loss” value (TNBS-induced colitis; 25 mg/kg ip twice a day for two days) was “did not prevent weight loss”. For the same substance, the “decrease of cPLA2 activity” value ([1]; MC12 40 μg) was 18%, the “decrease of cPLA2 activity” value ([1]; MC12 80 μg, p<0.05) was 26% and the “decrease of cPLA2 activity” value ([1]; MC-12 5 mg/kg) was 18%. For the same substance, the “decrease of cPLA2 activity” value ([1]; MC-12 25 mg/kg, p<0.05) was 24%, the “IFN-γ mRNA level in colon” value (IFN-γ) was “below baseline” and the “IL-10 mRNA level in colon” value (IL-10) was “below baseline”. For the same substance, the “IL-1β mRNA level in colon” value (IL-1β) was “essentially normalized”, the “IL-6 mRNA level in colon” value (IL-6) was “below baseline” and the “TNF-α mRNA level in colon” value (TNF-α) was “essentially normalized”. The “reduction of histological score compared to DSS control” value (DSS-induced colitis; 5 mg/kg po) was 50.2%, the “DSS-induced colonic inflammation (H&E histology)” value (DSS-induced colitis; 25 mg/kg orally) was “also decreased DSS-induced colonic inflammation” and the “reduction of histological score compared to DSS control” value (DSS-induced colitis; 25 mg/kg po) was 48.4%. For the same substance, the “increase in weight compared to baseline” value (DSS-induced colitis; highest ip dose 500 μg/day, day 8) was 7.7%.
